The source of these data is the RepoRT retention time repository (doi:10.1021/acs.analchem.2c02893).

The nature of the series: RP, Thermo Scientific Acclaim RSLC 120 C18, 100 × 2.1 mm, 2.2 µm, 30 °C, 0.2 mL/min, estimated dead time 1.1 min; A: 90% water + 10% methanol + 0.01% formic acid + 5 mM ammonium formate, pH 3.61; B: methanol + 0.01% formic acid + 5 mM ammonium formate, pH 3.61; gradient (min/%B) 0/1 1/1 2/39 13/99.9 15/99.9 15.1/1 20.1/1. Conditions: stereoisomer not certain.
With `CCN(CC)CC#CCOC(=O)C(O)(c1ccccc1)C1CCCCC1` (stereo not given) [Oxybutynin], the LC retention time was 8.92 min.

Consider `Cc1c(N(C)C)c(=O)n(-c2ccccc2)n1C` [Aminophenazone. Amidopyrin], for which the LC retention time was 5.21 min.

In the case of `CCC1COC(Cn2cncn2)(c2ccc(Cl)cc2Cl)O1` (stereo not given) [Etaconazole], the LC retention time is 10.2 min.

Turning to `CC(=NNC(=O)Nc1cc(F)cc(F)c1)c1ncccc1C(=O)O` [Diflufenzopyr], the LC retention time was 6.22 min.

As for `CC(C)(C)NCC(O)COc1cccc2c1CCC(=O)N2` (stereo not given) [Carteolol], the LC retention time was 3.91 min.

Turning to `NC(N)=NS(=O)(=O)c1ccc(N)cc1` [Sulfaguanidine], the LC retention time is 1.93 min.

For the compound `CCC1=C(C)CN(C(=O)NCCc2ccc(S(=O)(=O)NC(=O)NC3CCC(C)CC3)cc2)C1=O` (stereo not given) [Glimepiride], the LC retention time was 10.7 min.

On to `CCCCCn1cc(C(=O)c2ccc(Cl)c3ccccc23)c2ccccc21` [JWH-398], for which the LC retention time is 13.3 min.

In the case of `CCCN1CCCCC1C(=O)Nc1c(C)cccc1C` (stereo not given) [Ropivacaine], the LC retention time is 5.39 min.

Turning to `O=C1CN=C(c2ccccc2Cl)c2cc(Br)ccc2N1` [Phenazepam], the LC retention time is 8.93 min.

Regarding `COC(=O)c1ccc(C)cc1C1=NC(C)(C(C)C)C(=O)N1` (stereo not given) [Imazamethabenz-methyl], the LC retention time was 7.16 min.

On to `COC(=O)c1cc(Oc2ccc(Cl)cc2Cl)ccc1[N+](=O)[O-]` [Bifenox], for which the LC retention time is 11.5 min.

Regarding `CSc1nc(N)nc(NC(C)(C)C)n1` [Irgarol-descyclopropyl], the LC retention time is 8.43 min.

With `S=c1nc[nH]c2nc[nH]c12` [6-Mercaptopurine], the LC retention time is 2.62 min.

As to `NS(=O)(=O)c1cc(C(=O)O)cc(N2CCCC2)c1Oc1ccccc1` [Piretanide], the LC retention time is 7.17 min.

`CC(C)(C)NCC(O)c1cc(O)cc(O)c1` (stereo not given) [Terbutaline]: the LC retention time was 3.11 min.

On to `CCCCc1oc2ccccc2c1C(=O)c1cc(I)c(OCCN(CC)CC)c(I)c1` [Amiodarone], for which the LC retention time was 12.1 min.

Take `CCc1cc2c(s1)-n1cnnc1CN=C2c1ccccc1Cl` [Metizolam (Desmethyletizolam)]: the LC retention time was 7.93 min.

With `Cc1nnc2n1-c1sc(Br)cc1C(c1ccccc1Cl)=NC2` [Brotizolam], the LC retention time was 8.28 min.

With `CCN(CC)CCN1c2ccccc2Sc2ccccc21` [Diethazine], the LC retention time is 7.76 min.

On to `CC(C)(C)NCC(O)c1cc(Cl)c(N)c(Cl)c1` (stereo not given) [Clenbuterol], for which the LC retention time was 4.76 min.

As to `CCOP(=S)(OCC)Oc1cnccn1` [Thionazin (Zinophos)], the LC retention time was 8.35 min.

On to `COc1ccc2c(c1)c(CC(=O)OCC(=O)O)c(C)n2C(=O)c1ccc(Cl)cc1` [Acemetacin], for which the LC retention time is 9.9 min.

`CC(O)C1C(=O)N2C(C(=O)O)=C(SC3CNC(C(=O)N(C)C)C3)C(C)C12` (stereo not given) [Meropenem]: the LC retention time is 10.6 min.

Consider `COC(=O)N(C(=O)N1COC2(C(=O)OC)Cc3cc(Cl)ccc3C2=N1)c1ccc(OC(F)(F)F)cc1` (stereo not given) [Indoxacarb], for which the LC retention time is 11.6 min.

Regarding `COCCOc1c(OC)cc(Cc2cnc(N)nc2N)cc1OC` [Tetroxoprim], the LC retention time was 4.24 min.

`CN(CC=Cc1ccccc1)Cc1cccc2ccccc12` [Naftifine]: the LC retention time was 8.52 min.

Regarding `CC(CN(C)C)C(C)(O)Cc1ccc(Cl)cc1` (stereo not given) [Clobutinol], the LC retention time was 6.31 min.

For the compound `CC(C)(C)C(NC(=O)c1nn(Cc2ccc(F)cc2)c2ccccc12)C(N)=O` (stereo not given) [ADB-FUBINACA], the LC retention time was 10.3 min.

With `COP(=S)(OC)Oc1cc(Cl)c(Br)cc1Cl` [Bromophos (Bromophos-methyl)], the LC retention time is 12.7 min.

For the compound `CCCCCCCCCCCC[N+](C)(C)[O-]` [N,N-Dimethyldodecylamine N-oxide], the LC retention time was 11.2 min.

Regarding `COC(=O)C(NC(=O)c1nn(CCCCCF)c2ccccc12)C(C)(C)C` (stereo not given) [ADB-5F], the LC retention time is 11 min.

In the case of `CCN(CCCCOC(=O)c1ccc(OC)c(OC)c1)C(C)Cc1ccc(OC)cc1` (stereo not given) [Mebeverine], the LC retention time is 6.79 min.

As to `CCS(=O)(=O)c1cccnc1S(=O)(=O)NC(=O)Nc1nc(OC)cc(OC)n1` [Rimsulfuron], the LC retention time is 7.09 min.

`c1cnc2cc3c(cc2n1)C1CNCC3C1` [Varenicline]: the LC retention time was 3.63 min.

For `CCCSP(=S)(OCC)Oc1ccc(Cl)cc1Cl` (stereo not given) [Tokuthion (Prothiophos)], the LC retention time is 13.6 min.

Take `O=C(NC(=O)c1c(F)cccc1F)Nc1ccc(OC(F)(F)C(F)OC(F)(F)F)c(Cl)c1` (stereo not given) [Novaluron]: the LC retention time was 11.9 min.

`COc1ccc(C(=CC(=O)N2CCOCC2)c2ccc(Cl)cc2)cc1OC` [Dimethomorph]: the LC retention time is 9.22 min.

As to `CC(Cc1ccc(O)cc1)NCC(O)c1cc(O)cc(O)c1` (stereo not given) [Fenoterol], the LC retention time was 3.61 min.

`ON=Cc1cc[n+](COC[n+]2ccc(C=NO)cc2)cc1` [Obidoxime]: the LC retention time is 3.03 min.

As for `COCCCCC(=NOCCN)c1ccc(C(F)(F)F)cc1` [Fluvoxamine], the LC retention time is 8.28 min.

`Cc1cccc(Nc2ccncc2S(=O)(=O)NC(=O)NC(C)C)c1` [Torasemide]: the LC retention time was 6.67 min.

Turning to `COC(=O)C1=C(C)NC(C)=C(C(=O)OC(C)C)C1c1cccc2nonc12` (stereo not given) [Isradipine], the LC retention time was 9.61 min.

In the case of `CN(C)CCC=C1c2ccccc2Sc2ccc(Cl)cc21` [Chlorprotixene], the LC retention time is 8.99 min.

As to `CCCCCCC(C)(C)c1ccc(C2CCCC(O)C2)c(O)c1` (stereo not given) [CP 47-497], the LC retention time is 13.1 min.

As to `CN(C)CCN1c2ccccc2Sc2ccc(Cl)cc21` [Chlorphenethazine], the LC retention time was 8.49 min.

Consider `CCc1ccc(C(=O)c2cn(CCCCCF)c3ccccc23)c2ccccc12` [EAM-2201], for which the LC retention time is 12.2 min.

Regarding `CCN(CC)c1nc(C)cc(OP(=S)(OC)OC)n1` [Pirimiphos-methyl], the LC retention time was 11.3 min.

Consider `CCOS(=O)(=O)O` [Ethyl Sulphate (NH4)], for which the LC retention time is 1.58 min.

As to `CN1CCC23c4c5ccc(OC6OC(C(=O)O)C(O)C(O)C6O)c4OC2C(O)C=CC3C1C5` [Morphine-3-beta-D-glucuronide], the LC retention time is 1.63 min.

In the case of `O=C(O)CCC(=O)c1ccc(F)cc1` [4-Fluorobenzoylpropionic acid], the LC retention time is 6.09 min.

On to `Clc1ccc2c(c1)N=C(N1CCNCC1)c1ccccc1N2` [Clozapine-Nor], for which the LC retention time was 7.29 min.

As for `C#CC(C)N(C)C(=O)Nc1ccc(Cl)cc1` (stereo not given) [Buturon], the LC retention time is 8.35 min.

For `COc1ccc(CNc2nc(N3CCCC3CO)ncc2C(=O)NCc2ncccn2)cc1Cl` (stereo not given) [Avanafil], the LC retention time was 8.76 min.

As for `C#CCN(C)C(C)Cc1ccccc1` (stereo not given) [Deprenyl / Selegiline], the LC retention time is 4.68 min.
